Measurements as given in patent US7595405B2, “Tetrazole-substituted arylamides as P2X3 and P2X2/3 antagonists” (Roche Palo Alto LLC, priority 2006, dated 2009).

Assays:
[1] = target: T1, rat P2X3 receptor (Rattus norvegicus, UniProt P49654); assay: P2X3 FLIPR (Fluorometric Imaging Plate Reader) assay; format: cell-based; conditions: CHO-K1 cells transfected with rat P2X3, agonist α,β-meATP 1 μM
T1 construct: expressed in transfected cells; host or cells: CHO-K1
T1 sequence (P49654 1-397): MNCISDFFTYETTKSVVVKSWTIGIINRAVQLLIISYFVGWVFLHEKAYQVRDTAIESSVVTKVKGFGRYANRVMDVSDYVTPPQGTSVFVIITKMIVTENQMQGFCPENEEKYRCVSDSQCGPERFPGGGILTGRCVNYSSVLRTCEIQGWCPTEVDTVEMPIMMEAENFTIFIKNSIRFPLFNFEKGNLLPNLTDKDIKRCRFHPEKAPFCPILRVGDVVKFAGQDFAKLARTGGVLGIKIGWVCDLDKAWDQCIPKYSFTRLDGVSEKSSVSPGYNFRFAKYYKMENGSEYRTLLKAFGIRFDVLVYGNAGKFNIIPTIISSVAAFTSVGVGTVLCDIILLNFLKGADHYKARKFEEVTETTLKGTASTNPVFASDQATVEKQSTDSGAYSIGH
Experimental: P2X3/P2X2/3 FLIPR (Fluorometric Imaging Plate Reader) Assay
CHO-K1 cells were transfected with cloned rat P2X3 or human P2X2/3 receptor subunits and passaged in flasks. 18-24 hours before the FLIPR experiment, cells were released from their flasks, centrifuged, and resuspended in nutrient medium at 2.5×10^5 cells/ml. The cells were aliquoted into black-walled 96-well plates at a density of 50,000 cells/well and incubated overnight in 5% CO2 at 37° C. On the day of the experiment, cells were washed in FLIPR buffer (calcium- and magnesium-free Hank's balanced salt solution, 10 mM HEPES, 2 mM CaCl2, 2.5 mM probenecid; FB). […]
Test compounds (dissolved in DMSO at 10 mM and serially diluted with FB) or vehicle were added to each well (25 μl of a 4× solution) and allowed to equilibrate for 20 minutes at room temperature. The plates were then placed in the FLIPR and a baseline fluorescence measurement (excitation at 488 nm and emission at 510-570 nm) was obtained for 10 seconds before a 100 μl/well agonist or vehicle addition. […] Fluorescence was measured for an additional 2 minutes at 1 second intervals after agonist addition. A final addition of ionomycin (5 μM, final concentration) was made to each well of the FLIPR test plate to establish cell viability and maximum fluorescence of dye-bound cytosolic calcium. […]

| Compound | IC50 [1] [nM] | melting point [°C] |
| --- | --- | --- |
| Cc1ccc(-c2cc(C(=O)N[C@@H](C)CO)cc(-n3nnnc3CC(C)C)c2)cc1 [5-(5-isobutyl-tetrazol-1-yl)-4′-methyl-biphenyl-3-carboxylic acid ((S)-2-hydroxy-1-methyl-ethyl)-amide] | ~1.58 | – |
| CCCc1nnnn1-c1cc(C(=O)N[C@@H](C)CO)cc(-c2ccc(Cl)cc2F)c1 [Example 742, 4′-Chloro-2′-fluoro-5-(5-propyl-tetrazol-1-yl)-biphenyl-3-carboxylic acid ((S)-2-hydroxy-1-methyl-ethyl)-amide] | – | 58 to 60.3 |
| CCCc1nnnn1-c1cc(C(=O)NCc2cnc(C)cn2)cc(-c2ccc(Cl)cc2F)c1 [Example 741, 4′-Chloro-2′-fluoro-5-(5-propyl-tetrazol-1-yl)-biphenyl-3-carboxylic acid (5-methyl-pyrazin-2-ylmethyl)-amide] | – | 52 to 55 |
